# Measured values: US12286439B2, “Inhibitors of ERK nuclear translocation” (Yeda Research and Development Co. Ltd., priority 2018, dated 2025)
# *: point of attachment. Myristoyl = CCCCCCCCCCCCCC(=O)*
# Key:
# [1] = target: interaction of importin7 and ERK1/2 (Homo sapiens, UniProt O95373); details: Plotnikov et al., Nat Commun 2015; cited from earlier work
# [2] = system: Panc-1, AsPC-1, CFPAC-1, MIA PaCa-2, Capan-1, Capan-2 and BxPC-3 pancreatic cancer cells; assay: Viability assay (methylene blue), pancreatic cancer cell lines; assay type: cell-based; details: 10 μM, 72 hours
# Procedure: FIGS. 6A and 6B present data showing that Compound Z56 prevents proliferation of pancreatic cancer cells. […] Panc-1, AsPC-1, CFPAC-1, Mia PaCa-2, Capan-1, Capan-2 (Ras-transformed) and BxPC-3 (Ras-wild type) pancreatic cancer cells were treated with either EPE peptide (10 μM; middle bars) or Z56 (3 μM; right bars) or DMSO control (0.1%; left bars) in 1% FCS for 72 hours. […] Panc-1, AsPC-1, BxPC-3 and Mia PaCa-2 cells grown in 1% FCS medium containing either EPE peptide (10 μM), 56 (3 μM), PLX4032 (1 μM), PD184352 (5 μM) or DMSO control (0.1%). The graphs present the kinetics of cell proliferation at the indicated times after the treatment started. Quantification of all viable cells was done by methylene blue and repeated 3 times in triplicates. All results presented as a fold change of the initial cell number and represent averages ±SE.
# (§1) Cells were seeded at low confluence into 24, 48 or 96-well plates in complete medium. After 24 hours, medium was replaced by 1% FCS (fetal calf serum) containing appropriate treatments. Fresh medium containing the same agents was replaced every day. After 72 or 96 hours of treatment, cells were fixed with 4% formaldehyde overnight at 23° C., washed once with 0.1 M borate buffer (pH 8.5) for 10 minutes, and stained with of 1% methylene blue in 0.1 M borate buffer (pH 8.5) for 30 minutes. Excess stain was washed out with distilled water. Color was extracted by adding 0.1 M HCl (3 hours, 23° C.), and absorbance measured at 595 nm in an ELISA reader. For time course experiments, attached cells were fixed and measured at 0, 24, 48, 72 and 96 hours. For dose-response experiments, cells were treated with indicated concentrations of reagent, fixed and stained after 72 hours as above.
# Activating mutations in Ras are found in more than 95% of pancreatic cancers where signaling through both Raf and Akt pathway drives cancer progression [Campbell et al., Cancer Res 2007, 67:2098-2106]. However, no effective treatments that target this mutant protein have reached the clinic to date, and pancreatic ductal adenocarcinoma remains an almost universally fatal disease [Bryant et al., Trends Biochem Sci 2014, 39:91-100]. Therefore, treating these pancreatic cancer cells downstream of Ras, without overactivating the Akt pathway, should be at least partially beneficial. The effect of Compound Z56 (and EPE peptide) on cell viability of Ras-transformed (and Ras-wild type) pancreatic cancer cells was determined, using a variety of cell lines.
# The effects of Compound Z56 on the viability of pancreatic cancer cell lines at various times after treatment was compared with those of PLX4032 (a B-Raf inhibitor) and PD184352 (a MEK1/2 inhibitor).
# [3] = system: HeLa, A2352, A2185, LOX-IMVI, A4132, A2024, MDA-MB-231, PC3, A2058 and MCF7 cells; assay: Viability assay (methylene blue), ten cancer cell lines; assay type: cell-based; details: 10 μM, 72 hours, 1% FCS
# Procedure: Ten cancer cell lines were treated with either EPE peptide (10 μM; middle bars) or Compound Z56 (3 μM; right bars) or DMSO control (0.1%; left bars) in 1% FCS (fetal calf serum) for 72 hours.
# A3252 and A2058 cells were treated either with EPE peptide (10 μM), Z56 (1, 3 or 10 μM) or DMSO control (0.1%). The graphs present the kinetics of cell proliferation at the indicated times. Viable cells were quantified by staining with methylene blue. All results were presented as a fold change of the initial cell number and represent averages ±SE of 3 experiments in triplicate.
# as §1, with “For dose-response experiments, cells were treated with indicated concentrations of reagent, fixed and stained after 72 hours as above.” left out
# [4] = system: BRAF-mutant, NRAS-mutant and NF1-mutant melanomas; details: Arafeh et al., Sci Rep 2017; cited from earlier work
# [5] = system: ERK1/2 nuclear translocation; assay: Determination of ERK1/2 localization by fluorescence microscopy after TPA stimulation; assay type: cell-based; details: 10 μM, TPA 100 nM, 15 minutes
# Procedure: Determination of Protein Localization by Fluorescence Microscopy:
# Indicated cells were seeded on coverslips (coated with 0.001% w/v poly-L-lysine or not, depending on the cell line) at 50% confluency. After the indicated treatment, cells were fixed in 4% paraformaldehyde/PBS for 20 minutes on an ice surface, permeabilized with 0.1% Triton X-100/PBS for 5 minutes at 23° C., then blocked in 2% BSA/PBS for 30 minutes at 23° C. The fixed cells were sequentially incubated with appropriate antibodies (in 2% BSA/PBS, 1.5 hour), washed 3 times with PBS^−/−, and followed by incubation with either Cy-2-conjugated or rhodamine-conjugated secondary antibodies (1:200) and with DAPI ([…]; 1:100) in 2% BSA/PBS for 45 minutes. Slides were analyzed and photographed by a fluorescence microscope (Olympus BX51, ×40). Background correction, and contrast adjustment of raw data images were performed using Photoshop (Adobe, CA, USA).
# The effect of Z56 was compared with that of the inhibitory effect of EPE peptide on nuclear translocation of ERK1/2.
# The effects of the compounds on ERK1/2 nuclear translocation were evaluated in three cell lines (HeLa cells and two melanoma cell lines, A2185 and A2352), by treating the cells with each compound for two hours, and determining nuclear translocation using fluorescent anti-ERK antibodies, according to procedures described hereinabove.
# PC3 cells = assay: Dose-response analysis, PC3 cells; assay type: cell-based; details: 10 μM, 72 hours
# Procedure: (§2) FIG. 15A presents dose response curves of compounds C17, D3, D11 and D14 on 8 cancer cells. Five melanoma cell lines (A2185, A2352, A2024, A2058 and LOX-IMVI), HeLa, HCT-116 and PC3 cells were grown in 1% FCS media containing either DMSO (0.1%), EPE peptide (10 μM), or Compounds C17, D3, D11, D14 at the indicated concentrations, for 72 hours. Viable cells were quantified by staining with methylene blue. Data presented as percentage of DMSO control ±SE of triplicates. […] IC50 values were calculated by interpolation in the curves in FIG. 15A. […] Bar graphs represent average viability respect to DMSO control ±SE of triplicates.
# (§3) Cell Viability (IC50) Assay:
# (§4) Cells were seeded at a density of 4000 cells per well into 96-well plates in complete medium. After 24 hours, medium was replaced by 1% FCS (fetal calf serum) containing appropriate treatments. Fresh medium containing the same agents was replaced every day. After 96 hours, cell viability was assessed using the CellTiter-Glo reagent (Promega; Madison, WI). IC50 values were determined using GraphPad Prism.
# A2058 cells = assay: Dose-response analysis, A2058 cells; assay type: cell-based; details: 10 μM
# Procedure: as §2, §3, §4
# Sequence of interaction of importin7 and ERK1/2 (O95373 whole entry): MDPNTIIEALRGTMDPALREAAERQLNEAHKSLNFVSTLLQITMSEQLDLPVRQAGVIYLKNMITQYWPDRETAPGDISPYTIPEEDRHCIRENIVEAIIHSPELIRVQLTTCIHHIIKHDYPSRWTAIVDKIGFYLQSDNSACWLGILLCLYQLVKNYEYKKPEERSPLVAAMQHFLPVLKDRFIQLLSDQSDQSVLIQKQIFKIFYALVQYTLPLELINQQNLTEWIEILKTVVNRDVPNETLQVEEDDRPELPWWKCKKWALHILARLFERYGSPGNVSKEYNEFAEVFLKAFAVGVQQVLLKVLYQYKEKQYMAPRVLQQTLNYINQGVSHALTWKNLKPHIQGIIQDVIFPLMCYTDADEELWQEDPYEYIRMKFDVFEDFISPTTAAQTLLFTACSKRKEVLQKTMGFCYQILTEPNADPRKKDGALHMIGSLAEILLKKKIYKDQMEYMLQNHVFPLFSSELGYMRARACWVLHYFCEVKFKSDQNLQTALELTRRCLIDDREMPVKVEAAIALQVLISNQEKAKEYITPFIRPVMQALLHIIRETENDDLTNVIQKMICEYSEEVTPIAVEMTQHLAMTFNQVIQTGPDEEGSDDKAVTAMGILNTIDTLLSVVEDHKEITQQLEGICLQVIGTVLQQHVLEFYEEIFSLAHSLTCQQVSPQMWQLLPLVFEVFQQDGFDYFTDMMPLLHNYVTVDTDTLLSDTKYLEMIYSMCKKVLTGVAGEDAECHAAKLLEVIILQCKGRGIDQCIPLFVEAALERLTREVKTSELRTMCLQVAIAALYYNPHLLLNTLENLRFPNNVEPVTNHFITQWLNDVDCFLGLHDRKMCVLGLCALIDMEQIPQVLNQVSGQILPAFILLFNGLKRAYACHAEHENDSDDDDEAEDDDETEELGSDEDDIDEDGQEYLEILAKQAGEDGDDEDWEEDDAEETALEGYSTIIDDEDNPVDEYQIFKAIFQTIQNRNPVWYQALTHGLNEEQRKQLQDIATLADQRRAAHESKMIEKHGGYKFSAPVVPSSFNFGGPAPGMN
substance,measurement,setting,value
EPE peptide: peptide GQLNHILGILGEPEQEDL (SEQ ID NO: 1) conjugated at N-terminus to myristic acid and C-terminal amidated (Myristoyl-GQLNHILGILGEPEQEDL-NH2; SMILES CCCCCCCCCCCCCC(=O)NCC(=O)N[C@@H](CCC(N)=O)C(=O)N[C@@H](CC(C)C)C(=O)N[C@@H](CC(N)=O)C(=O)N[C@@H](Cc1c[nH]cn1)C(=O)N[C@H](C(=O)N[C@@H](CC(C)C)C(=O)NCC(=O)N[C@H](C(=O)N[C@@H](CC(C)C)C(=O)NCC(=O)N[C@@H](CCC(=O)O)C(=O)N1CCC[C@H]1C(=O)N[C@@H](CCC(=O)O)C(=O)N[C@@H](CCC(N)=O)C(=O)N[C@@H](CCC(=O)O)C(=O)N[C@@H](CC(=O)O)C(=O)N[C@@H](CC(C)C)C(N)=O)[C@@H](C)CC)[C@@H](C)CC) [reference compound],interaction of importin7 and ERK1/2 and nuclear translocation of ERK1/2,[1],blocks the interaction of importin7 and ERK1/2
same,proliferation/viability,[2]; 4 Ras-transformed pancreatic cell lines other than Panc-1 and AsPC-1,no major effect
same,reduction of cell proliferation relative to control,[2]; Ras-wild type BxPC-3 cells,50%
same,cell viability and apoptosis,[2]; only 2 of the 7 tested cell lines (Panc-1 and AsPC-1),reduced cell viability and induced apoptosis
same,"proliferation of PC3, A2058 and MCF7 cells",[3],not significantly affected
same,apoptosis / proliferation of EPE-sensitive cell lines,"[3]; HeLa, A2352, A2185, LOX-IMVI, A4132, Z2024, MDA-MB-231",induced apoptosis
same,"combination with the MEK inhibitor trametinib, viability of NRAS-mutant melanomas",[4],exhibited synergy
same,"viability of BRAF-mutant, NRAS-mutant and NF1-mutant melanomas",[4],significantly reduced the viability
same,degree of ERK1/2 nuclear localization induced by TPA (percentage of cells with nuclear ERK1/2 staining),"[5]; 2 hours pretreatment, MCF7, A2352, HB2 and HeLa cells",phenotype similar to the basal state
same,nuclear accumulation of ERK1/2 upon TPA stimulation,"[5]; 2 hours, A2185 and A2352 cells",inhibited
same,viability of PC3 cells,PC3 cells,only a very modest effect
same,viability of BRAF melanoma cells A2058,A2058 cells,lack of effect
